The results in this text go back to patent US9815787B2, “Sulfonamide derivative or pharmaceutically acceptable acid addition salt thereof” (UNIVERSITY OF TSUKUBA, priority 2013, dated 2017).

As a reminder, the EC50 is the concentration giving half of the maximal effect. High values mean lower potency in that assay, low ones higher potency in that assay. The Emax is the maximal effect, on the per cent scale that the assay sets.

For this assay, the target named is T1, OX2R (Homo sapiens, UniProt O43614).
T1 construct: expressed in transfected cells; host or cells: CHO (Chinese hamster ovary) cells constitutively expressing the OX2R gene and NFAT-luciferase (CHOOX2R)
T1 sequence (O43614 1-444): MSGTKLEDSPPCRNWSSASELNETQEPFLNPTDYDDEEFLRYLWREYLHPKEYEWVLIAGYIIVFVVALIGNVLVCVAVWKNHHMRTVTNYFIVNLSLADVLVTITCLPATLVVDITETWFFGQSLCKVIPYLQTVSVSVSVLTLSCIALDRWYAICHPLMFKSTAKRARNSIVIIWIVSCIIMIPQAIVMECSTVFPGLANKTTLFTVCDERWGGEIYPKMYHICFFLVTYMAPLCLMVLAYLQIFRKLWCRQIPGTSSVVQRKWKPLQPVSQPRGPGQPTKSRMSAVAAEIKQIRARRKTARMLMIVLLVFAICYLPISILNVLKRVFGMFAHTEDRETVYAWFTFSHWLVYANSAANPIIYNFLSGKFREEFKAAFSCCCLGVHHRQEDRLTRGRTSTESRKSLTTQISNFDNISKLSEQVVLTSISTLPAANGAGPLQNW
As to the kind of experiment: Evaluation of agonist activity against OX2R (CHOOX2R cells, Fura2AM fluorescence, FDSS3000). It is filed as cell-based. Summed up: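 CHO cells stably expressing human OX2R (and NFAT-luciferase), cultured 48 h in 5% FBS DMEM. Agonist response read as change in Fura2AM fluorescence on compound addition in HEPES buffer. Final compound concentrations 0.1, 1.0 or 10 μM; 1% DMSO.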

[1] abbreviates: test compound 0.1 μM; CHOOX2R cells; relative to orexin-A as full agonist (100%).
The mark [2] stands for this setting: test compound 1.0 μM; CHOOX2R cells; relative to orexin-A as full agonist (100%).
Where [3] appears, read: test compound 10 μM; CHOOX2R cells; relative to orexin-A as full agonist (100%).
[4] abbreviates: OX2R agonist activity; CHOOX2R cells.
[5] abbreviates: conversion with orexin-A as full agonist (maximum agonist activity 100%).
Where [6] appears, read: test compound 0.1 μM; relative to orexin-A as full agonist (100%); CHOOX2R cells.
Setting [7] is: test compound 1.0 μM; relative to orexin-A as full agonist (100%); CHOOX2R cells.
Setting [8] is: test compound 10 μM; relative to orexin-A as full agonist (100%); CHOOX2R cells.

Molecules are shown by their SMILES.

`COc1ccc(-c2cccc(C(=O)N3CCC3)c2)cc1S(=O)(=O)Nc1cccc(NCCNC(=O)c2ccccc2Cl)c1` [Example 82, N-(2-((3-(3′-(azetidine-1-carbonyl)-4-methoxy-[1,1′-biphenyl]-3-ylsulfonamido)phenyl)amino)ethyl)-2-chlorobenzamide]: the “Response (0.1 μM (%))” value under setting [1] is reported as less than 5%. Under setting [2], the “Response (1.0 μM (%))” value is 51%. Besides, the “Response (10 μM (%))” value under setting [3] is 74%.
As for `CNC(=O)c1cccc(-c2ccc(OC)c(S(=O)(=O)Nc3cccc(NCCNC(=O)c4ccccc4OC)c3)c2)c1` [Example 73, 4′-methoxy-3′-(N-(3-((2-(2-methoxybenzamido)ethyl)amino)phenyl)sulfamoyl)-N-methyl-[1,1′-biphenyl]-3-carboxamide], the EC50 under setting [4] turned out to be 0.182 µM. Under setting [5], this compound registered an Emax of 98%. Further, under setting [1], the “Response (0.1 μM (%))” value is reported as 45%. The “Response (1.0 μM (%))” value under setting [2] worked out at 90%. Under setting [3], the “Response (10 μM (%))” value came out at 98%.
In the case of `COc1ccccc1C(=O)NCCNc1cccc(NS(=O)(=O)c2cc(-c3cc(Cl)ccc3Cl)ccc2OC)c1` [Example 25, N-(2-((3-(2′,5′-dichloro-4-methoxy-[1,1′-biphenyl]-3-ylsulfonamide)phenyl)amino)ethyl)-2-methoxybenzamide], the “Response (0.1 μM (%))” value under setting [6] is less than 5%. Under setting [7], the “Response (1.0 μM (%))” value is recorded as 7%. The “Response (10 μM (%))” value under setting [8] is 38%.
`COc1ccc(-c2cccc(C(=O)N(C)C)c2)cc1S(=O)(=O)Nc1cccc(NCCNC(=O)c2ccnn2C)c1` [Example 59, N-(2-((3-(3′-(dimethylcarbamoyl)-4-methoxy-[1,1′-biphenyl]-3-ylsulfonamido)phenyl)amino)ethyl)-1-methyl-1H-pyrazole-5-carboxamide]: the “Response (0.1 μM (%))” value under setting [1] is recorded as less than 5%. In addition, the “Response (1.0 μM (%))” value under setting [2] was less than 5%. Also, the “Response (10 μM (%))” value under setting [3] was found to be 64%.
For `COc1ccc(-c2cccc(C(=O)N(C)C)c2)cc1S(=O)(=O)Nc1cccc(NCCNC(=O)c2ccccc2C(F)(F)F)c1` [Example 69, 4′-methoxy-N,N-dimethyl-3′-(N-(3-((2-(2-(trifluoromethyl)benzamido)ethyl)amino)phenyl)sulfamoyl)-[1,1′-biphenyl]-3-carboxamide], the “Response (0.1 μM (%))” value under setting [1] is recorded as 67%. In addition, the “Response (1.0 μM (%))” value under setting [2] is reported as 123%. In addition, the “Response (10 μM (%))” value under setting [3] amounted to 111%.
For `COc1cc(OC)cc(-c2ccc(OC)c(S(=O)(=O)Nc3cccc(NCCNC(=O)c4ccccc4OC)c3)c2)c1` [Example 36, 2-methoxy-N-(2-((3-(3′,4,5′-trimethoxy-[1,1′-biphenyl]-3-ylsulfonamide)phenyl)amino)ethyl)benzamide], the “Response (0.1 μM (%))” value under setting [1] is given as less than 5%. For the same compound, under setting [2], the “Response (1.0 μM (%))” value is 11%. Under setting [3], the “Response (10 μM (%))” value was found to be 68%.
The corresponding values for `COc1cccc(C(=O)NCCNc2cccc(NS(=O)(=O)c3cc(-c4ncccc4F)ccc3OC)c2)c1` [Example 93, N-(2-((3-(5-(3-fluoropyridin-2-yl)-2-methoxyphenylsulfonamido)phenyl)amino)ethyl)-3-methoxybenzamide] are less than 5%, 33% and 73%.
For `COc1cccc(C(=O)NCCNc2cccc(NS(=O)(=O)c3cc(-c4c(F)cccc4OC)ccc3OC)c2)c1` [Example 24, N-(2-((3-(2′-fluoro-4,6′-dimethoxy-[1,1′-biphenyl]-3-ylsulfonamide)phenyl)amino)ethyl)-3-methoxybenzamide], the “Response (0.1 μM (%))” value under setting [6] is less than 5%. Further, the “Response (1.0 μM (%))” value under setting [7] was less than 5%. Also, under setting [8], the “Response (10 μM (%))” value is less than 5%.
With `COc1ccccc1C(=O)NCCNc1cccc(NS(=O)(=O)c2cc(-c3ccccc3C(=O)N(C)C)ccc2OC)c1` [Example 79, 4′-methoxy-3′-(N-(3-((2-(2-methoxybenzamido)ethyl)amino)phenyl)sulfamoyl)-N,N-dimethyl-[1,1′-biphenyl]-2-carboxamide], the “Response (0.1 μM (%))” value under setting [1] was less than 5%. The “Response (1.0 μM (%))” value under setting [2] turned out to be 18%. Further, the “Response (10 μM (%))” value under setting [3] is 34%.
On to `COc1ccc(-c2cccc(C(=O)N3CCC3)c2)cc1S(=O)(=O)Nc1cccc(NCCNC(=O)c2cccc(F)c2)c1` [Example 84, N-(2-((3-(3′-(azetidine-1-carbonyl)-4-methoxy-[1,1′-biphenyl]-3-ylsulfonamido)phenyl)amino)ethyl)-3-fluorobenzamide], for which the “Response (0.1 μM (%))” value under setting [1] worked out at 7%. The “Response (1.0 μM (%))” value under setting [2] stood at 58%. Besides, the “Response (10 μM (%))” value under setting [3] is on record as 70%.
For the compound `COc1ccccc1C(=O)NCCNc1cccc(NS(=O)(=O)c2cc(-c3cc(F)ccc3F)ccc2OC)c1` [Example 19, N-(2-((3-(2′,5′-difluoro-4-methoxy-[1,1′-biphenyl]-3-ylsulfonamide)phenyl)amino)ethyl)-2-methoxybenzamide], the “Response (0.1 μM (%))” value under setting [6] is reported as less than 5%. For the same compound, the “Response (1.0 μM (%))” value under setting [7] was 8%. Besides, the “Response (10 μM (%))” value under setting [8] was 143%.
In turn, `COc1ccc(-c2cccc(C(=O)N(C)C)c2)cc1S(=O)(=O)Nc1cccc(NCCNC(=O)c2cc(F)cc(F)c2)c1` [Example 54, 3′-(N-(3-((2-(3,5-difluorobenzamido)ethyl)amino)phenyl)sulfamoyl)-4′-methoxy-N,N-dimethyl-[1,1′-biphenyl]-3-carboxamide] registered an EC50 under setting [4] of 0.63 µM. The compound also registered an Emax under setting [5] of 94%. For the same compound, the “Response (0.1 μM (%))” value under setting [1] worked out at 33%. Also, the “Response (1.0 μM (%))” value under setting [2] was determined as 168%. Under setting [3], the “Response (10 μM (%))” value was found to be 126%.
Regarding `COc1ccc(-c2cccc(C(=O)N3CCCC3)c2)cc1S(=O)(=O)Nc1cccc(NCCNC(=O)c2sccc2Cl)c1` [Example 89, 3-chloro-N-(2-((3-(4-methoxy-3′-(pyrrolidine-1-carbonyl)-[1,1′-biphenyl]-3-ylsulfonamido)phenyl)amino)ethyl)thiophene-2-carboxamide], the “Response (0.1 μM (%))” value under setting [1] is reported as 93%. Also, the “Response (1.0 μM (%))” value under setting [2] came out at 96%. The “Response (10 μM (%))” value under setting [3] worked out at 97%.
As to `COc1ccccc1C(=O)NCCNc1cccc(NS(=O)(=O)c2cc(-c3cccc(C(=O)NCC(F)(F)F)c3)ccc2OC)c1` [Example 78, 4′-methoxy-3′-(N-(3-((2-(2-methoxybenzamido)ethyl)amino)phenyl)sulfamoyl)-N-(2,2,2-trifluoroethyl)-[1,1′-biphenyl]-3-carboxamide], the “Response (0.1 μM (%))” value under setting [1] is reported as less than 5%. The “Response (1.0 μM (%))” value under setting [2] was found to be 33%. Also, the “Response (10 μM (%))” value under setting [3] came out at 49%.
Compound `COc1ccc(C(=O)NCCNc2cccc(NS(=O)(=O)c3cc(-c4cccc(C(=O)N(C)C)c4)ccc3OC)c2)cc1` [Example 44, 4′-methoxy-3′-(N-(3-((2-(4-methoxybenzamido)ethyl)amino)phenyl)sulfamoyl)-N,N-dimethyl-[1,1′-biphenyl]-3-carboxamide] showed an EC50 under setting [4] of 1.05 µM. This compound also had an Emax under setting [5] of 94%. Also, the “Response (0.1 μM (%))” value under setting [1] is reported as less than 5%. The “Response (1.0 μM (%))” value under setting [2] is given as 28%. The “Response (10 μM (%))” value under setting [3] is listed as 94%.
In the case of `COc1cccc(C(=O)NCCNc2cccc(NS(=O)(=O)c3cc(-c4cccc(C(=O)N(C)C)c4)ccc3OC)c2)c1` [Example 41, 4′-methoxy-3′-(N-(3-((2-(3-methoxybenzamido)ethyl)amino)phenyl)sulfamoyl)-N,N-dimethyl-[1,1′-biphenyl]-3-carboxamide], the EC50 under setting [4] is 0.033 µM. Under setting [5], this compound gave an Emax of 57%. Under setting [1], the “Response (0.1 μM (%))” value was 70%. The “Response (1.0 μM (%))” value under setting [2] was found to be 107%. Further, under setting [3], the “Response (10 μM (%))” value was 115%.
Take `COc1ccccc1C(=O)NCCNc1cccc(NS(=O)(=O)c2cc(-c3ccccc3Cl)ccc2OC)c1` [Example 10, N-(2-((3-(2′-chloro-4-methoxy-[1,1′-biphenyl]-3-ylsulfonamide)phenyl)amino)ethyl)-2-methoxybenzamide]: the “Response (0.1 μM (%))” value under setting [6] is on record as less than 5%. The “Response (1.0 μM (%))” value under setting [7] is on record as less than 5%. Further, under setting [8], the “Response (10 μM (%))” value stood at 41%.
Take `COc1cccc(C(=O)NCCNc2cccc(NS(=O)(=O)c3cc(-c4ccccc4OC)ccc3OC)c2)c1` [Example 13, N-(2-((3-(2′,4-dimethoxy-[1,1′-biphenyl]-3-ylsulfonamide)phenyl)amino)ethyl)-3-methoxybenzamide]: under setting [6], the “Response (0.1 μM (%))” value is less than 5%. Besides, the “Response (1.0 μM (%))” value under setting [7] is recorded as 64%. Moreover, the “Response (10 μM (%))” value under setting [8] amounted to 99%.
The like results for `COc1cc(C)c(-c2cccc(C(=O)N(C)C)c2)cc1S(=O)(=O)Nc1cccc(NCCNC(=O)c2cccc(F)c2)c1` [Example 102, 5′-(N-(3-((2-(3-fluorobenzamido)ethyl)amino)phenyl)sulfamoyl)-4′-methoxy-N,N,2′-trimethyl-[1,1′-biphenyl]-3-carboxamide] were, in that order, 61%, 83% and 85%.
